According to US10676431B2, “Phenylpyrrolidinone formyl peptide 2 receptor agonists” (BRISTOL-MYERS SQUIBB COMPANY, priority 2018, dated 2020):

What was measured:
[1] = molecular target: human FPR2 (Homo sapiens (Human), UniProt P25090); test: FPR2 cyclic adenosine monophosphate (cAMP) assay; format: cell-based; details: CHO cells overexpressing human FPR2; forskolin 5 μM, IBMX 200 μM; inhibition of cAMP production, HTRF; read-out: hFPR2 cAMP2 EC50
Description: (§1) FPR2 and FPR1 Cyclic Adenosine Monophosphate (cAMP) Assays. A mixture of forskolin (5 μM final for FPR2 or 10 μM final for FPR1) and IBMX (200 μM final) were added to 384-well Proxiplates (Perkin-Elmer) pre-dotted with test compounds in DMSO (1% final) at final concentrations in the range of 0.020 nM to 100 μM. Chinese Hamster Ovary cells (CHO) overexpressing human FPR1 or human FPR2 receptors were cultured in F-12 (Ham's) medium supplemented with 10% qualified FBS, 250 μg/ml zeocin and 300 μg/ml hygromycin (Life Technologies). Reactions were initiated by adding 2,000 human FPR2 cells per well or 4,000 human FPR1 cells per well in Dulbecco's PBS (with calcium and magnesium) (Life Technologies) supplemented with 0.1% BSA (Perkin-Elmer). The reaction mixtures were incubated for 30 min at room temperature. The level of intracellular cAMP was determined using the HTRF HiRange cAMP assay reagent kit (Cisbio) according to manufacturer's instruction. Solutions of cryptate conjugated anti-cAMP and d2 fluorophore-labelled cAMP were made in a supplied lysis buffer separately. Upon completion of the reaction, the cells were lysed with equal volume of the d2-cAMP solution and anti-cAMP solution. After a 1-h room temperature incubation, time-resolved fluorescence intensity was measured using the Envision (Perkin-Elmer) at 400 nm excitation and dual emission at 590 nm and 665 nm. A calibration curve was constructed with an external cAMP standard at concentrations ranging from 1 μM to 0.1 pM by plotting the fluorescent intensity ratio from 665 nm emission to the intensity from the 590 nm emission against cAMP concentrations. The potency and activity of a compound to inhibit cAMP production was then determined by fitting to a 4-parametric logistic equation from a plot of cAMP level versus compound concentrations.

[2] = molecular target: human FPR1 (Homo sapiens (Human), UniProt P21462); test: FPR1 cyclic adenosine monophosphate (cAMP) assay; format: cell-based; details: CHO cells overexpressing human FPR1; forskolin 10 μM, IBMX 200 μM; inhibition of cAMP production, HTRF; read-out: hFPR1 cAMP EC50
Chain of human FPR1 (P21462 whole entry): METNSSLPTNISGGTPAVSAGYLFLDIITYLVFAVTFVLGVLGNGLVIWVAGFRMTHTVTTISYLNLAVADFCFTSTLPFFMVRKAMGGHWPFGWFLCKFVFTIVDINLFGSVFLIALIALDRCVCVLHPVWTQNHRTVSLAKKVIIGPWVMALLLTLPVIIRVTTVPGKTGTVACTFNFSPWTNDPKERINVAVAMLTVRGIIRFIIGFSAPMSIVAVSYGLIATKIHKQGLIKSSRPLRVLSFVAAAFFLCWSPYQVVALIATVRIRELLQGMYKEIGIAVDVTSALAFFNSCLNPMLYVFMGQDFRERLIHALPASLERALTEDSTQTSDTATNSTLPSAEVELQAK
Description: as §1, with “After a 1-h room temperature incubation, time-resolved fluorescence intensity was measured using the Envision (Perkin-Elmer) at 400 nm excitation and dual emission at 590 nm and 665 nm. A calibration curve was constructed with an external cAMP standard at concentrations ranging from 1 μM to 0.1 pM by plotting the fluorescent intensity ratio from 665 nm emission to the intensity from the 590 nm emission against cAMP concentrations.” left out

Chain of human FPR2 (P25090 whole entry): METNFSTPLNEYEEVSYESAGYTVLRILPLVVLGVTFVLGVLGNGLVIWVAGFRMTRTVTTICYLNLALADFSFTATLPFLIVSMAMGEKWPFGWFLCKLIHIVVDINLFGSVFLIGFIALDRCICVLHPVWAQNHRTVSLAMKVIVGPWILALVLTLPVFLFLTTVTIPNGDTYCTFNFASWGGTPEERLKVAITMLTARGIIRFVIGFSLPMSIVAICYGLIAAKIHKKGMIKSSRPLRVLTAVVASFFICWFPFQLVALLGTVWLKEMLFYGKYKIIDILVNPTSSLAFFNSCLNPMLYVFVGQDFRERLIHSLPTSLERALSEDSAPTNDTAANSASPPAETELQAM

Row | SMILES | EC50 [1] [nM] | EC50 [2] [nM]
1 | CP(C)(=O)c1ccccc1-c1ccc(N2CC[C@@H](NC(=O)Nc3ccc(C(F)(F)F)cc3F)C2=O)c(F)c1C(F)(F)F [Example 94] | 1.8 | 12
2 | CC1C[C@@H](NC(=O)Nc2ccc(C(F)(F)F)cc2F)C(=O)N1c1ccc(-c2ccccc2P(C)(C)=O)c(F)c1F (stereo partly shown) [Example 115] | 1.2 | 55
3 | CC(N)c1cccc(-c2ccc(N3CC[C@@H](NC(=O)Nc4ccc(Cl)cc4)C3=O)c(F)c2F)c1 (stereo partly shown) [Example 22] | 33 | 1500
4 | CP(C)(=O)c1c(F)cccc1-c1ccc(N2CC[C@@H](NC(=O)Nc3ccc(C(F)(F)F)cc3F)C2=O)c(F)c1Cl [Example 86] | 0.85 | 21
5 | CP(C)(=O)c1c(F)cccc1-c1ccc(N2CC[C@@H](NC(=O)Nc3ccc(Cl)cc3F)C2=O)c(F)c1Cl [Example 85] | 0.62 | 5.1
6 | CP(C)(=O)c1ccccc1-c1ccc(N2CC[C@@H](NC(=O)Nc3ccc(C(F)(F)F)cc3F)C2=O)c(Cl)c1Cl [Example 80] | 1.4 | 86
7 | CC1C[C@@H](NC(=O)Nc2ccc(C(F)(F)F)cc2F)C(=O)N1c1ccc(-c2cccnc2P(C)(C)=O)c(F)c1F (stereo partly shown) [Example 120] | 0.78 | 160
8 | O=C(Nc1ccc(Cl)cc1)N[C@@H]1CCN(c2ccc(-c3ccccc3CO)c(F)c2F)C1=O [Example 3] | 1.1 | 220
9 | CP(C)(=O)c1ccccc1-c1ccc(N2CC[C@@H](NC(=O)Nc3ncc(C(F)(F)F)cc3F)C2=O)c(F)c1F [Example 55] | 22 | > 10000
10 | CS(=O)(=O)Nc1ccccc1-c1ccc(N2CC[C@@H](NC(=O)Nc3cnc(Cl)cn3)C2=O)c(F)c1F [Example 15] | 10 | 1500
11 | CS(=O)(=O)Nc1ccccc1-c1ccc(N2CC[C@@H](NC(=O)Nc3c(F)cc(Cl)cc3F)C2=O)c(F)c1F [Example 4] | 0.93 | 1700
12 | CCP(=O)(CC)c1ccccc1-c1ccc(N2CC[C@@H](NC(=O)Nc3ccc(C(F)(F)F)cc3F)C2=O)c(F)c1F [Example 68] | 0.53 | 150
13 | COc1ccc(NC(=O)N[C@@H]2CCN(c3ccc(-c4ccccc4S(C)(=O)=O)c(F)c3F)C2=O)cc1 [Example 54] | 5.5 | 900
14 | CP(C)(=O)c1ccccc1-c1ccc(N2CC[C@@H](NC(=O)Nc3ccc(Cl)cc3F)C2=O)c(F)c1C(F)F [Example 95] | 32 | 200
15 | CC1C[C@@H](NC(=O)Nc2ccc(Cl)cc2F)C(=O)N1c1ccc(-c2ccccc2P(C)(C)=O)c(F)c1F (stereo in doubt) [Example 109, 1-(4-Chloro-2-fluorophenyl)-3-(1-(2′-(dimethylphosphoryl)-2,3-difluoro-[1,1′-biphenyl]-4-yl)-5-methyl-2-oxopyrrolidin-3-yl)urea] | 0.44 | 390
16 | CP(C)(=O)c1ccccc1-c1ccc(N2C(=O)[C@H](NC(=O)Nc3ccc(C(F)(F)F)cc3F)C[C@H]2CN2CCOCC2)c(F)c1F [Example 131] | 1.2 | 61
17 | CP(C)(=O)c1ccccc1-c1ccc(N2CC[C@@H](NC(=O)Nc3ccc(Cl)s3)C2=O)c(F)c1F [Example 135] | 2.9 | 720000
18 | CCP(=O)(CC)c1ncccc1-c1ccc(N2CC[C@@H](NC(=O)Nc3ccc(C(F)(F)F)cc3F)C2=O)c(F)c1F [Example 100] | 2 | 92
19 | CP(C)(=O)c1c(F)cccc1-c1ccc(N2CC[C@@H](NC(=O)Nc3ccc(C(F)(F)F)cc3F)C2=O)c(F)c1F [Example 72] | 0.61 | 54
20 | CP(C)(=O)c1ccccc1-c1ccc(N2CC[C@@H](NC(=O)Nc3ccc(Cl)cc3F)C2=O)c(F)c1F [Example 25, (R)-1-(4-chloro-2-fluorophenyl)-3-(1-(2′-(dimethylphosphoryl)-2,3-difluoro-[1,1′-biphenyl]-4-yl)-2-oxopyrrolidin-3-yl)urea] | 0.53 | 260
21 | CC1C[C@@H](NC(=O)Nc2ccc(C(F)(F)F)cc2F)C(=O)N1c1ccc(-c2cccnc2P(C)(C)=O)c(F)c1F (stereo partly shown) [Example 128] | 1 | 24

Row | SMILES | EC50 [1] [nM] | EC50 [2] [nM]
22 | CS(=N)(=O)c1ccccc1-c1ccc(N2CC[C@@H](NC(=O)Nc3ccc(C(F)(F)F)cc3F)C2=O)c(F)c1F (stereo partly shown) [Example 66] | 4.9 | 580
23 | N#Cc1ccccc1-c1ccc(N2CC[C@@H](NC(=O)Nc3ccc(Cl)cc3F)C2=O)c(F)c1F [Example 9] | 2.1 | 31
24 | CP(C)(=O)c1ccccc1-c1ccc(N2CC(CO)[C@@H](NC(=O)Nc3ccc(Cl)cc3F)C2=O)c(F)c1F (stereo partly shown) [Example 126] | 12 | > 10000
25 | CP(C)(=O)c1ccccc1-c1ccc(N2CC3(CC3)[C@@H](NC(=O)Nc3ccc(Cl)cc3F)C2=O)c(F)c1F [Example 132] | 0.48 | 28
26 | COc1ccc(NC(=O)N[C@@H]2CCN(c3ccc(-c4ccccc4P(C)(C)=O)c(F)c3F)C2=O)cc1 [Example 65] | 1.2 | 2600
27 | CP(C)(=O)c1ccccc1-c1ccc(N2CC[C@@H](NC(=O)Nc3ncc(Cl)cc3F)C2=O)c(F)c1F [Example 56] | 7.5 | 7700
28 | CP(C)(=O)c1ccccc1-c1ccc(N2CC[C@@H](NC(=O)Nc3csc(Cl)c3)C2=O)c(F)c1F [Example 133] | 150 | > 5000
29 | CS(=N)(=O)c1ccccc1-c1ccc(N2CC[C@@H](NC(=O)Nc3ccc(Cl)cc3F)C2=O)c(F)c1F (stereo partly shown) [Example 58] | 6.3 | 610
30 | O=C(Nc1ccc(Cl)cc1F)N[C@@H]1CCN(c2ccc(-c3ccccc3CO)c(F)c2F)C1=O [Example 2] | 4.2 | 360
31 | CC(C)c1cc(-c2ccccc2P(C)(C)=O)ccc1N1CC[C@@H](NC(=O)Nc2ncc(Cl)cc2F)C1=O [Example 61] | 23 | 370
32 | CS(=O)(=O)Nc1ncccc1-c1ccc(N2CC[C@@H](NC(=O)Nc3ccc(Cl)cc3F)C2=O)c(F)c1F [Example 23] | 8.2 | 700
33 | CP(C)(=O)c1ccccc1-c1ccc(N2CC[C@@H](NC(=O)Nc3ccc(Cl)cc3F)C2=O)c(F)c1OC(F)(F)F [Example 87] | 1.6 | 1.2
34 | O=C(Nc1ccc(Cl)cc1F)N[C@@H]1CCN(c2ccc(-c3cnn(C(F)F)c3)c(F)c2F)C1=O [Example 79] | 39 | > 10000
35 | CCP(=O)(CC)c1ccccc1-c1ccc(N2CC[C@@H](NC(=O)Nc3ccc(Cl)cc3F)C2=O)c(F)c1F [Example 75] | 3.4 | 1180
36 | COc1ccc(NC(=O)N[C@@H]2CCN(c3ccc(-c4ccccc4P(C)(C)=O)c(F)c3F)C2=O)c(F)c1 [Example 71] | 2.1 | 1280
37 | CS(=O)(=O)Nc1ccccc1-c1ccc(N2CC[C@@H](NC(=O)Nc3ccc(Cl)cc3F)C2=O)c(F)c1 [Example 32] | 0.91 | 250
38 | CP(C)(=O)c1ccccc1-c1ccc(N2CC[C@@H](NC(=O)Nc3ccc(Cl)cc3F)C2=O)c(C2CC2)c1F [Example 117] | 13 | 84
39 | CP(C)(=O)c1ccccc1-c1ccc(N2CC(CO)[C@@H](NC(=O)Nc3ccc(Cl)cc3F)C2=O)c(F)c1F (stereo partly shown) [Example 127] | 18 | 920
40 | CS(=O)(=O)Nc1ccccc1-c1ccc(N2CC[C@@H](NC(=O)Nc3cnc(C(F)(F)F)cn3)C2=O)c(F)c1F [Example 18] | 20 | 2100
41 | CS(=O)(=O)c1ccccc1-c1ccc(N2CC[C@@H](NC(=O)Nc3ccc(Cl)cc3F)C2=O)c(F)c1F [Example 7] | 2.1 | 140
